In ChEMBL document CHEMBL1773004, “1-[(1-methyl-1H-imidazol-2-yl)methyl]-4-phenylpiperidines as mGluR2 positive allosteric modulators for the treatment of psychosis” (J Med Chem, 2011):
The source made the active and inactive calls. The rule behind the calls is not given here.

test system: Brain; test: Fraction unbound in rat brain by LC-MS/MS assay; assay type: ADME, tissue-based; settings: not given

Compound	Fu [%]
COc1cc(C(F)(F)F)ccc1[C@@H]1CCN(Cc2nc3ncccc3n2C)C[C@@H]1C	0.6
C[C@H]1CN(Cc2nc3ncccc3n2C)CC[C@H]1c1ccc(C(F)(F)F)cc1F	0.5
C[C@H]1CN(Cc2nc3ncccc3n2C)CC[C@H]1c1ccc(OC(F)(F)F)cc1F	0.3

target: Metabotropic glutamate receptor 1 (Homo sapiens) (UniProt Q13255); test: Agonist activity at mGlu1 receptor at up to 10 uM; assay type: functional; settings: not given
Sequence (Q13255 19-1194 limits assumed): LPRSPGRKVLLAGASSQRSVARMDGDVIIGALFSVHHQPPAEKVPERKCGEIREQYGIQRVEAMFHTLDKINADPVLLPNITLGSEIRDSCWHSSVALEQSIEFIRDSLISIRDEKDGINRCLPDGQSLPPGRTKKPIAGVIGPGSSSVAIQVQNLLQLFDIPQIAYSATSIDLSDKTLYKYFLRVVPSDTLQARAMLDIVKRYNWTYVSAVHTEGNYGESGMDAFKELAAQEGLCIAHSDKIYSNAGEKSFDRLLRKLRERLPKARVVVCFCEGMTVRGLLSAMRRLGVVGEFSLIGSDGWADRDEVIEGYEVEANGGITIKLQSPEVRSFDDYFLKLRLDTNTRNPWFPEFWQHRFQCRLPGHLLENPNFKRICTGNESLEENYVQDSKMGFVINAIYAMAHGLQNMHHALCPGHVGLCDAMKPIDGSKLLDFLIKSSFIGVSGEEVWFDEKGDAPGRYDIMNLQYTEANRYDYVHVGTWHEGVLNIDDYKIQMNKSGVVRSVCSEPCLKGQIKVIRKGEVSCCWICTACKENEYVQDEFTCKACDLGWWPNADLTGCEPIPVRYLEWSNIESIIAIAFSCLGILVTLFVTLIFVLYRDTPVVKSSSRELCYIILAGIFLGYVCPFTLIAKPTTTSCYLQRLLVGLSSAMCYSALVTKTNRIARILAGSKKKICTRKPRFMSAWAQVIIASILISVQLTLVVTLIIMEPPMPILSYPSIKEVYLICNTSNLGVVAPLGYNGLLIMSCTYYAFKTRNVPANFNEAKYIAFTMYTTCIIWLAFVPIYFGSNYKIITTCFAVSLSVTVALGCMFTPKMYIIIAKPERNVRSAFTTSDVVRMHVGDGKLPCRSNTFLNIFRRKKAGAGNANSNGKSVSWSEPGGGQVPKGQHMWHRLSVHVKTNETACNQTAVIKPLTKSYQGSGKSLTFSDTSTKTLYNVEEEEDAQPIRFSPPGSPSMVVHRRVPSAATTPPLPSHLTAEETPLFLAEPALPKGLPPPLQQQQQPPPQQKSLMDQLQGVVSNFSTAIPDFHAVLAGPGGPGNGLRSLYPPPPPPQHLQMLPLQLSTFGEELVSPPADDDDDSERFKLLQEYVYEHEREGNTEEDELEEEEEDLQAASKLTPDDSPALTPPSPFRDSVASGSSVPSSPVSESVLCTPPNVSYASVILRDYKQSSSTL

Compound	Activity
COc1cc(C(F)(F)F)ccc1[C@@H]1CCN(Cc2nc3ncccc3n2C)C[C@@H]1C	inactive
C[C@H]1CN(Cc2nc3ncccc3n2C)CC[C@H]1c1ccc(C(F)(F)F)cc1F	inactive
C[C@H]1CN(Cc2nc3ncccc3n2C)CC[C@H]1c1ccc(OC(F)(F)F)cc1F	inactive

target: Metabotropic glutamate receptor 2 (Homo sapiens, UniProt Q14416); test: Positive allosteric modulation of human mGluR2 expressed in HEK293 cells co-expressing Galpha15 G protein assessed as increase in glutamate-induced intracellular calcium release by FLIPR assay; assay type: functional, cell-based; settings: not given
Sequence (Q14416 whole entry): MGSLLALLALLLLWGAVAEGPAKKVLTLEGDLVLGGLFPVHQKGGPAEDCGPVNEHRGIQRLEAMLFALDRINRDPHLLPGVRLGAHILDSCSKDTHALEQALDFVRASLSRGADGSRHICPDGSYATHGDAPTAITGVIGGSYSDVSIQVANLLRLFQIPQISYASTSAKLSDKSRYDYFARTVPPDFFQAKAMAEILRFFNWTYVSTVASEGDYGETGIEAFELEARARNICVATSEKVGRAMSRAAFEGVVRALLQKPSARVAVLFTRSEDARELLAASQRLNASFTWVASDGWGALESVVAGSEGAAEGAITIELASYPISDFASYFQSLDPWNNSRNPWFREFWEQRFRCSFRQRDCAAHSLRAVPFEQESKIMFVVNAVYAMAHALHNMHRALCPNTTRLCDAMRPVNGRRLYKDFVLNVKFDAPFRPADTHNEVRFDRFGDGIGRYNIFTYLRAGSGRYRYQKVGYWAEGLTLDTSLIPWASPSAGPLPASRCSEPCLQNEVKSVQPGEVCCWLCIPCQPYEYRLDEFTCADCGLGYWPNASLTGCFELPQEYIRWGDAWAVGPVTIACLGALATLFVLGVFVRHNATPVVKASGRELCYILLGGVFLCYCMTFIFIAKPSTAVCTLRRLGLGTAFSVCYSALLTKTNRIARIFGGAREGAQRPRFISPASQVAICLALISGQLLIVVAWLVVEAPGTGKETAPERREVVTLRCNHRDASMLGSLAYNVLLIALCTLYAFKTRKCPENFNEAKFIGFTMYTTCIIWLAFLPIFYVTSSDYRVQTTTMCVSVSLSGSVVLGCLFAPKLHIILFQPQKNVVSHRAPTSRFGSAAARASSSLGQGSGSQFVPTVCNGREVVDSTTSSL

Compound	EC50 [nM]
COc1cc(C(F)(F)F)ccc1[C@@H]1CCN(Cc2nc3ncccc3n2C)C[C@@H]1C	76
C[C@H]1CN(Cc2nc3ncccc3n2C)CC[C@H]1c1ccc(C(F)(F)F)cc1F	3
Cn1c(CN2CCC(c3ccc(C(F)(F)F)cc3)CC2)nc2ncccc21	43

test system: HEK293; test: Selectivity ratio of Ki for dopamine D2 receptor in rat corpus striatum to EC50 for rat mGluR2 expressed in HEK293 cells; assay type: cell-based; settings: not given

Compound	Ratio
COc1cc(C(F)(F)F)ccc1[C@@H]1CCN(Cc2nc3ncccc3n2C)C[C@@H]1C	> 239
C[C@H]1CN(Cc2nc3ncccc3n2C)CC[C@H]1c1ccc(C(F)(F)F)cc1F	> 584
Cn1c(CN2CCC(c3ccc(C(F)(F)F)cc3)CC2)nc2ncccc21	8

target: Metabotropic glutamate receptor 5 (Homo sapiens) (UniProt P41594); test: Positive allosteric modulation of mGlu5 receptor at up to 10 uM; settings: not given
Sequence (P41594 21-1212 limits assumed): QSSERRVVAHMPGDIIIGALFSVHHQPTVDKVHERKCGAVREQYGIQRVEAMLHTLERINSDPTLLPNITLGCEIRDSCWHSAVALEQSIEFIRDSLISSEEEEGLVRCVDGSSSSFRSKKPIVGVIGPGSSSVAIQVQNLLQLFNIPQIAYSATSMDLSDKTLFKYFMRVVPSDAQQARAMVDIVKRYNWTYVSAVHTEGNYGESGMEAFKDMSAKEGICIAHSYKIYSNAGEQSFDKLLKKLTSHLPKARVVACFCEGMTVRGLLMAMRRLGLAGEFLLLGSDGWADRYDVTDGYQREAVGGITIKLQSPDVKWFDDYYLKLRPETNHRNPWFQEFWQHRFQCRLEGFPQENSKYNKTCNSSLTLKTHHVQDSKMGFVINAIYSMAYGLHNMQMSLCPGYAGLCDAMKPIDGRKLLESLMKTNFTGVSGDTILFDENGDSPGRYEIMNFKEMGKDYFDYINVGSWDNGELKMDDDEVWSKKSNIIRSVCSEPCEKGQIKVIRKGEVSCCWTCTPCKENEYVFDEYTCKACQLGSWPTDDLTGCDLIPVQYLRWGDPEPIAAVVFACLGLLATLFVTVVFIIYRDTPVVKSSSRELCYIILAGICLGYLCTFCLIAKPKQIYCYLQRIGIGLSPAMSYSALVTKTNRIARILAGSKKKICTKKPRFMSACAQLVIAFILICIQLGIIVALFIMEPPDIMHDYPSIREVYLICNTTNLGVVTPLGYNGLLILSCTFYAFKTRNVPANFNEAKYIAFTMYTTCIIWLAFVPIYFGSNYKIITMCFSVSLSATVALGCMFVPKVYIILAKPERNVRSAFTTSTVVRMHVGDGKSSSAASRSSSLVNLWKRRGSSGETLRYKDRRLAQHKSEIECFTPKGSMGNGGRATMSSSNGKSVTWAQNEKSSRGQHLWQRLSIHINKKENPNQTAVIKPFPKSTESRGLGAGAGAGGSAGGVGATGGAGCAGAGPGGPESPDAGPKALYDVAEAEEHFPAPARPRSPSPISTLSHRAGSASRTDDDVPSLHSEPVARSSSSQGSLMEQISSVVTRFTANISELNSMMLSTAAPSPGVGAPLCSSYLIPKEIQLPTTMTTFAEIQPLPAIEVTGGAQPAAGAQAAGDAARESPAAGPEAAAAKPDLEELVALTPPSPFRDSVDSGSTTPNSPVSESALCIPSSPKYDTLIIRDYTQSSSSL

Compound	Activity
COc1cc(C(F)(F)F)ccc1[C@@H]1CCN(Cc2nc3ncccc3n2C)C[C@@H]1C	inactive
C[C@H]1CN(Cc2nc3ncccc3n2C)CC[C@H]1c1ccc(C(F)(F)F)cc1F	inactive
C[C@H]1CN(Cc2nc3ncccc3n2C)CC[C@H]1c1ccc(OC(F)(F)F)cc1F	inactive

test system: not listed separately; test: Oral bioavailability in rat at 10 mg/kg; assay type: ADME, organism-based; settings: in vivo

Compound	bioavailability [%]
C[C@H]1CN(Cc2nc3ncccc3n2C)CC[C@H]1c1ccc(C(F)(F)F)cc1F	74
Cn1c(CN2CCC(c3ccc(C(F)(F)F)cc3)CC2)nc2ncccc21	100

test system: not listed separately; test: Cmax in rat brain at 3 mg/kg, po; assay type: ADME, organism-based; set-up: dose 3 mg/kg, route oral; settings: not given

Compound	Cmax [nM]
C[C@H]1CN(Cc2nc3ncccc3n2C)CC[C@H]1c1ccc(OC(F)(F)F)cc1F	1070

target: Metabotropic glutamate receptor 1 (Homo sapiens) (UniProt Q13255); test: Antagonist activity at mGlu1 receptor at up to 10 uM; assay type: functional; settings: not given

Compound	Activity
COc1cc(C(F)(F)F)ccc1[C@@H]1CCN(Cc2nc3ncccc3n2C)C[C@@H]1C	inactive
C[C@H]1CN(Cc2nc3ncccc3n2C)CC[C@H]1c1ccc(C(F)(F)F)cc1F	inactive
C[C@H]1CN(Cc2nc3ncccc3n2C)CC[C@H]1c1ccc(OC(F)(F)F)cc1F	inactive

test system: Mus musculus; test: Antipsychotic activity in sc dosed mouse assessed as inhibition of methamphetamine-induced hyperlocomotion measured for 60 mins; assay type: functional; settings: not given

Compound	inhibition
C[C@H]1CN(Cc2nc3ncccc3n2C)CC[C@H]1c1ccc(OC(F)(F)F)cc1F	Dose-dependent effect

same assay, conditions: 1 h, read-out: MED

Compound	minimal effective dose [mg/kg]
C[C@H]1CN(Cc2nc3ncccc3n2C)CC[C@H]1c1ccc(OC(F)(F)F)cc1F	17.8

target: Metabotropic glutamate receptor 5 (Homo sapiens) (UniProt P41594); test: Agonist activity at mGlu5 receptor at up to 10 uM; assay type: functional; settings: not given

Compound	Activity
COc1cc(C(F)(F)F)ccc1[C@@H]1CCN(Cc2nc3ncccc3n2C)C[C@@H]1C	inactive
C[C@H]1CN(Cc2nc3ncccc3n2C)CC[C@H]1c1ccc(C(F)(F)F)cc1F	inactive
C[C@H]1CN(Cc2nc3ncccc3n2C)CC[C@H]1c1ccc(OC(F)(F)F)cc1F	inactive

test system: not listed separately; test: Cmax in rat brain at 5 mg/kg, po; assay type: ADME, organism-based; set-up: dose 5 mg/kg, route oral; settings: not given

Compound	Cmax [nM]
COc1cc(C(F)(F)F)ccc1[C@@H]1CCN(Cc2nc3ncccc3n2C)C[C@@H]1C	1580

target: D(2) dopamine receptor (Rattus norvegicus, UniProt P61169); test: Displacement of [3H]spiperone from dopamine D2 receptor in rat corpus striatum by beta plate scintillation counting; assay type: tissue-based; settings: not given
Sequence (P61169 whole entry): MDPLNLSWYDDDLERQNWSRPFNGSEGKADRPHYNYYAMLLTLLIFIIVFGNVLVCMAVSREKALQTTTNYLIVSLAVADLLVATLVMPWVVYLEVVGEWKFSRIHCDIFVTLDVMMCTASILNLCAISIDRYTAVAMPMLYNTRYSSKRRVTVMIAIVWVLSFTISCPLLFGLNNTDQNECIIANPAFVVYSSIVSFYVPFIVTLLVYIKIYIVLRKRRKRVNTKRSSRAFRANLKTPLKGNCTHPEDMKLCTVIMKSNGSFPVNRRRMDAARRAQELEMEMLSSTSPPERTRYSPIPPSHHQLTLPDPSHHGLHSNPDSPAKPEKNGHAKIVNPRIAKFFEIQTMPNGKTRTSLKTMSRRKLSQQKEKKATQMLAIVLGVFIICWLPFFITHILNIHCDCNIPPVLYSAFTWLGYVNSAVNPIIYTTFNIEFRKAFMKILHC

Compound	Ki [nM]
COc1cc(C(F)(F)F)ccc1[C@@H]1CCN(Cc2nc3ncccc3n2C)C[C@@H]1C	> 5260
Cn1c(CN2[C@@H]3CC[C@H]2CC(c2ccc(C(F)(F)F)cc2)C3)nc2ncccc21 (some centres not stated)	355
Cn1c(CN2CCC(c3ccc(F)cc3)CC2)nc2ccccc21	24
Cn1c(CN2CC[C@@H](c3ccc(C(F)(F)F)cc3)C(C)(C)C2)nc2ncccc21	> 2800
C[C@@H]1CN(Cc2nc3ncccc3n2C)CC[C@@H]1c1ccc(C(F)(F)F)cc1	> 2800
C[C@H]1CN(Cc2nc3ncccc3n2C)CC[C@H]1c1ccc(C(F)(F)F)cc1F	> 5260
Cn1c(CN2CCC(c3ccc(C(F)(F)F)cc3)CC2)nc2ncccc21	404
C[C@H]1CN(Cc2nc3ncccc3n2C)CC[C@H]1c1ccc(OC(F)(F)F)cc1F	> 4680

test system: not listed separately; test: Plasma clearance in rat at 1 mg/kg, iv; assay type: ADME, organism-based; set-up: dose 1 mg/kg, route intravenous; settings: not given

Compound	clearance [mL/min/kg]
C[C@H]1CN(Cc2nc3ncccc3n2C)CC[C@H]1c1ccc(C(F)(F)F)cc1F	7.5
Cn1c(CN2CCC(c3ccc(C(F)(F)F)cc3)CC2)nc2ncccc21	5.4

test system: not listed separately; test: Permeability from apical to basolateral side of MDR1 transfected MDCK cells at 1 uM; assay type: ADME, cell-based, Canis lupus familiaris; settings: dog, read-out: permeability

Compound	Papp A→B at 1 µM [×10⁻⁶ cm/s]
COc1cc(C(F)(F)F)ccc1[C@@H]1CCN(Cc2nc3ncccc3n2C)C[C@@H]1C	19
C[C@H]1CN(Cc2nc3ncccc3n2C)CC[C@H]1c1ccc(C(F)(F)F)cc1F	26
Cn1c(CN2CCC(c3ccc(C(F)(F)F)cc3)CC2)nc2ncccc21	30
C[C@H]1CN(Cc2nc3ncccc3n2C)CC[C@H]1c1ccc(OC(F)(F)F)cc1F	14

test system: not listed separately; test: Cmax in rat brain at 10 mg/kg, po; assay type: ADME, organism-based; set-up: dose 10 mg/kg, route oral; settings: not given

Compound	Cmax [nM]
C[C@H]1CN(Cc2nc3ncccc3n2C)CC[C@H]1c1ccc(C(F)(F)F)cc1F	3120
Cn1c(CN2CCC(c3ccc(C(F)(F)F)cc3)CC2)nc2ncccc21	5210

target: Metabotropic glutamate receptor 2 (Rattus norvegicus, UniProt P31421); test: Positive allosteric modulation of rat mGluR2 expressed in HEK293 cells co-expressing Galpha15 G protein assessed as increase in glutamate-induced intracellular calcium release by FLIPR assay; assay type: functional, cell-based; settings: not given
Sequence (P31421 whole entry): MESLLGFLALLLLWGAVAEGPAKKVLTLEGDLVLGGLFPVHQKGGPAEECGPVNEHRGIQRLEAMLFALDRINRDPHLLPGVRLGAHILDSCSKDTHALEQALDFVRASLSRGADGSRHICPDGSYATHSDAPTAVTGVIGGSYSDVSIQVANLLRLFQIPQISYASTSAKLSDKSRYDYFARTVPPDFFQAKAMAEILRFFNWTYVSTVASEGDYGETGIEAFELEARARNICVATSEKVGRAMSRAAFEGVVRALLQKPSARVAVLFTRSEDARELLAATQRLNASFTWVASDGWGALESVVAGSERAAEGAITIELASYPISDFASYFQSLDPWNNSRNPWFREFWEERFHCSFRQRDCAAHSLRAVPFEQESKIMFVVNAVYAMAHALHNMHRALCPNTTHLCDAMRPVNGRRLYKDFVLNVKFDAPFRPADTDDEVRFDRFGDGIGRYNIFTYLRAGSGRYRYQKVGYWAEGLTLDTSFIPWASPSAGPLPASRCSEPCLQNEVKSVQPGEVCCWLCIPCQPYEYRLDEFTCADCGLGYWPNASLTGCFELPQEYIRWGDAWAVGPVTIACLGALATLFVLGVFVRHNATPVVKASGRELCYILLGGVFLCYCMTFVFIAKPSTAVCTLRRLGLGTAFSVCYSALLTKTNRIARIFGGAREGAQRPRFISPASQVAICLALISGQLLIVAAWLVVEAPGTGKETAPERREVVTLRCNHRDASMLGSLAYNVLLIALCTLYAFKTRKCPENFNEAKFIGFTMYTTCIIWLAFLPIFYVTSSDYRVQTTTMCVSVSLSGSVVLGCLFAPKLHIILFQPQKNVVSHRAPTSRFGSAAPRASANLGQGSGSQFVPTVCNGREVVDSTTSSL

Compound	EC50 [nM]
COc1cc(C(F)(F)F)ccc1[C@@H]1CCN(Cc2nc3ncccc3n2C)C[C@@H]1C	22
Cn1c(CN2[C@@H]3CC[C@H]2CC(c2ccc(C(F)(F)F)cc2)C3)nc2ncccc21 (some centres not stated)	184
Cn1c(CN2CCC(c3ccc(F)cc3)CC2)nc2ccccc21	159
Cn1c(CN2CC[C@@H](c3ccc(C(F)(F)F)cc3)C(C)(C)C2)nc2ncccc21	745
C[C@@H]1CN(Cc2nc3ncccc3n2C)CC[C@@H]1c1ccc(C(F)(F)F)cc1	> 1990
C[C@H]1CN(Cc2nc3ncccc3n2C)CC[C@H]1c1ccc(C(F)(F)F)cc1F	9
Cn1c(CN2CCC(c3ccc(C(F)(F)F)cc3)CC2)nc2ncccc21	48

test system: Mus musculus; test: Antipsychotic activity in sc dosed CD1 mouse assessed as inhibition of mescaline-induced scratching behavioral response administered 20 mins before mescalin challenge measured for 12 mins; assay type: functional; settings: not given

Compound	inhibition
C[C@H]1CN(Cc2nc3ncccc3n2C)CC[C@H]1c1ccc(OC(F)(F)F)cc1F	Dose-dependent effect

same assay, conditions: read-out: MED

Compound	minimal effective dose [mg/kg]
C[C@H]1CN(Cc2nc3ncccc3n2C)CC[C@H]1c1ccc(OC(F)(F)F)cc1F	10

test system: MDCK; test: Efflux ratio of permeability from […] of MDR1 transfected MDCK cells at 1 uM; assay type: ADME, cell-based, Canis lupus familiaris; settings: dog

Compound	Ratio
COc1cc(C(F)(F)F)ccc1[C@@H]1CCN(Cc2nc3ncccc3n2C)C[C@@H]1C	1.5
C[C@H]1CN(Cc2nc3ncccc3n2C)CC[C@H]1c1ccc(C(F)(F)F)cc1F	1.7
Cn1c(CN2CCC(c3ccc(C(F)(F)F)cc3)CC2)nc2ncccc21	1.4

target: Metabotropic glutamate receptor 5 (Homo sapiens) (UniProt P41594); test: Antagonist activity at mGlu5 receptor at up to 10 uM; assay type: functional; settings: not given

Compound	Activity
COc1cc(C(F)(F)F)ccc1[C@@H]1CCN(Cc2nc3ncccc3n2C)C[C@@H]1C	inactive
C[C@H]1CN(Cc2nc3ncccc3n2C)CC[C@H]1c1ccc(C(F)(F)F)cc1F	inactive
C[C@H]1CN(Cc2nc3ncccc3n2C)CC[C@H]1c1ccc(OC(F)(F)F)cc1F	inactive

test system: not listed separately; test: Ratio of drug level in brain to plasma in rat at 3.2 mg/kg, sc after 60 mins; assay type: ADME, organism-based; set-up: dose 3.2 mg/kg, route subcutaneous; settings: not given

Compound	Kp at 1 h
COc1cc(C(F)(F)F)ccc1[C@@H]1CCN(Cc2nc3ncccc3n2C)C[C@@H]1C	8
C[C@H]1CN(Cc2nc3ncccc3n2C)CC[C@H]1c1ccc(C(F)(F)F)cc1F	7
Cn1c(CN2CCC(c3ccc(C(F)(F)F)cc3)CC2)nc2ncccc21	5
C[C@H]1CN(Cc2nc3ncccc3n2C)CC[C@H]1c1ccc(OC(F)(F)F)cc1F	4

test system: not listed separately; test: Oral bioavailability in rat at 3 mg/kg; assay type: ADME, organism-based; settings: in vivo

Compound	bioavailability [%]
C[C@H]1CN(Cc2nc3ncccc3n2C)CC[C@H]1c1ccc(OC(F)(F)F)cc1F	50

test system: not listed separately; test: Plasma clearance in rat at 0.5 mg/kg, iv; assay type: ADME, organism-based; set-up: dose 0.5 mg/kg, route intravenous; settings: not given

Compound	clearance [mL/min/kg]
C[C@H]1CN(Cc2nc3ncccc3n2C)CC[C@H]1c1ccc(OC(F)(F)F)cc1F	4.5

test system: not listed separately; test: Ratio of drug level in brain to plasma in mouse at 10 mg/kg, sc after 60 mins; assay type: ADME, organism-based; set-up: dose 10 mg/kg, route subcutaneous; settings: not given

Compound	Kp at 1 h
COc1cc(C(F)(F)F)ccc1[C@@H]1CCN(Cc2nc3ncccc3n2C)C[C@@H]1C	1.7
C[C@H]1CN(Cc2nc3ncccc3n2C)CC[C@H]1c1ccc(C(F)(F)F)cc1F	1.9
C[C@H]1CN(Cc2nc3ncccc3n2C)CC[C@H]1c1ccc(OC(F)(F)F)cc1F	1.2
